Experiment [1] relates to sera from four Rhesus Monkeys given live HIV-1. As to the kind of experiment: ELISA of sera from Rhesus monkeys given live HIV-1 for antibodies to p17 peptides (Figure 5). The class given is binding. To be noted: result in words. The text has this:
• Figure 1 is a schematic drawing illustrating the proposed orientation for the p17 gag protein of HIV; • Figure 2 is a chart depicting the primary amino acid sequences of HIV-1 p17 (strain HB10) and also of the p17 proteins of HIV-2 and SIV; • Figure 3 is another chart depicting the primary amino acid sequence of the peptides in p17; • Figure 4 is a graph plotting antibody titers of HIV p17 peptides in rabbits immunized with native HIV p17; and • Figure 5 is a bar graph illustrating the results of ELISA analysis of sera from 4 Rhesus monkeys exposed to live HIV antibodies to the p17 peptide fragments of this invention.
In another test, sera from four Rhesus Monkeys given live HIV-1 were also evaluated for antibodies to Peptides A, B, C, D and E and the results are shown in Figure 5. […] Sera from individuals who had been naturally exposed to the HIV virus and were seropositive for p17 were also evaluated.

The test system of experiment [2] is antibodies of a rabbit immunized with native (intact) HIV p17. Description: Antibody titers to p17 peptides in a rabbit immunized with native HIV p17 (Figure 4). It counts as binding. The settings on record: rabbit immunized with HPLC-purified native HIV p17, synthetic peptide analogs, result in words.

This passage reports antibody response and antibody titers results from patent EP0426314B1, “HIV related peptides” (VIRAL TECHNOLOGIES, INC., priority 1989, dated 1995).

Regarding “Peptide A: p17 gag HIV protein fragment, positions 1-32, formula (II); sequence only in image I00003 (GARASVLSGGELDRWEKIRLRPGGKKKYKLKH; Matrix protein p17; UniProt P04591 2-33, looked up, fragment)”, the antibody response result in experiment [1] is “strong antibody response in at least one of the challenged monkeys”.

On to “Peptide B: p17 gag HIV protein fragment, positions 33-50, formula (III); sequence only in image I00004 (IVWASRELERFAVNPGLL; Matrix protein p17; UniProt P04591 34-51, looked up, fragment)”, for which the antibody response result in experiment [1] is given as “strong antibody response in at least one of the challenged monkeys”.

Take “Peptide C: p17 gag HIV protein fragment, positions 51-84, formula (IV); sequence only in image I00005 (ETSEGCRQILGQLQPSLQTGSEELRSLYNTVATL; Matrix protein p17; UniProt P04591 52-85, looked up, fragment)”: the antibody titers result in experiment [2] is reported as “highest titers”. The antibody response entry in experiment [1] is “strong antibody response in at least one of the challenged monkeys”.
